According to US12030908B2, “Antimicrobial compounds, compositions, and uses thereof” (Lakewood Amedex, Inc., priority 2017, dated 2024):

Assays:
P. aeruginosa = experiment: Broth microdilution MIC at incremental pH, P. aeruginosa; assay type: cell-based
Procedure: (§1) MIC testing is conducted using the broth (Mueller Hinton Broth) microdilution procedures relevant to each organism group as established by the Clinical and Laboratory Standards Institute (CLSI; 3-7). MIC plates are prepared in accordance with CLSI (3-7). To prepare the test plates, automated liquid handlers are used to conduct serial dilutions and liquid transfers. Automated liquid handlers utilized in this study include the Multidrop 384 (Labsystems, Helsinki, Finland) and the Biomek 2000 (Beckman Coulter, Fullerton CA). The solution is diluted to desired pH using 1 M Citric Acid or 1 M NaOH buffer. A standardized inoculum of each test organism is prepared per CLSI methods (3, 5-7) to equal a 0.5 McFarland standard in the appropriate media followed by an additional 1:20 dilution (1:10 for anaerobes).
(§2) The plates are then inoculated with 10 μL of the diluted 0.5 McFarland suspension using the Biomek 2000 from low to high drug concentration, resulting in a final concentration of approximately 5×10^5 CFU/mL per well. An un-inoculated plate is incubated for the purpose of assessing solubility of the drug in the test media. The plates are stacked 3 to 4 high, covered with a sterile lid on the top plate, and incubated for 18 to 24 hours according to CLSI. The MIC is recorded as the lowest concentration of respective compound that inhibited visible growth of the organism.

[1] = test system: wild type E. coli (ATCC 25922); experiment: Bacterial cytological profiling at pH 4, 5.5, 7 (Example 7), E. coli; assay type: cell-based; details: pH 5.5 and 7
Procedure: This bacterial cytological profiling (BCP) investigation uses methods and materials described previously by Nonejuie, P., Burkart, M., Poglianoa, K., Pogiano, J. (2013). Bacterial cytological profiling rapidly identifies the cellular pathways targeted by antibacterial molecules. Proc. Natl. Acad. Sci. U.S.A. 110(40):16169-16174. doi: 10.1073/pnas.1311066110.
For viable cell counts, cells are grown to OD600≈0.4 and diluted 1:1 into buffered or unbuffered media containing various compound concentrations. Samples are then collected and serially diluted (1:10) on a 96 well plate. Five microliters from each well are spotted on LB plates, incubated at 30° C., and viable cells are counted the next day.
Samples are collected at 10, 30, 120, and 240 min of exposure for viable cell count and imaging. For imaging, E. coli and S. aureus 200 μL of treated cells per time point are stained with 0.8 μg/mL FM4-64, 1.5 μg/mL DAPI, and 0.4 μM SYTOXGreen (Molecular Probes/Invitrogen). P. aeruginosa samples are stained 0.4 μM SYTOX Green, 28 μg/mL DAPI, and 1 μg/mL FM 4-64. Cells are transferred to an agarose pad (20% LB, 1% agarose) for imaging.
For Nu-3 and Nu-8 stocks (at pH 4, 5.5 and 7), stock concentration is 500 mg/mL. For pH 4, the stocks are prepared by dissolving Nu-3 in 25 mM citrate buffer and Nu-8 in 350 mM citric acid. […]

[2] = test system: Escherichia coli (strain CFT073, TPPS 1041); experiment: Initial urinary tract infection model in BALB/c mice, transurethral treatment (Example 9); assay type: in vivo; details: pH 3.5, 1025 mg/kg transurethral
From the text: Female BALB/c mice (20-22 g) ordered from Envigo are acclimated to housing conditions and handled in accordance with Animal Use Protocol (AUP) number TP-08. Animals are fed irradiated Teklad Global 29 18 Rodent Diet and water ad libitum. Mice are housed 6/cage in static cages with irradiated ⅛″ Teklad corn cobbedding 7902 inside bioBubble® clean rooms that provide H.E.P.A filtered air into the bubble environment at 100 complete air changes per hour. The environment is controlled to a temperature range of 74°±4° F. and a humidity range of 30-70%. All procedures carried out in this experiment are conducted in compliance with the laws, regulations, and guidelines of the National Institutes of Health and with the approval of the TransPharm Preclinical Solutions Animal Care and Use Committee.
A clinical isolate of Escherichia coli (strain CFT073, TPPS 1041) are procured from the University of Michigan.
The organism is grown overnight at 37° C. in ambient atmosphere on trypticase soy agar plates supplemented with 5% sheep blood cells. The culture is aseptically swabbed and transferred to tubes of trypticase soy broth. The optical density is determined at 600 nm. The culture is diluted to provide an inoculum of approximately 7.5 log10 CFU per mouse in a volume of 30 μL. Instillation of the bacterial challenge constituted time 0 hour for the study. Inoculum counts are estimated before inoculation by optical density and confirmed after inoculation by dilution and back counts.
One hour prior to bacterial challenge, water is removed from animal cages. […]
The primary endpoint used to assess progress of the infection is mean bacterial burden per gram of urinary bladder tissue. […] Colony forming units (CFU) are enumerated and the total bacterial burden per gram of urinary bladder tissue homogenate is calculated.
The geometric mean CFU, along with standard error of the mean (SEM), are calculated using Microsoft Excel and bar charts are prepared for the data using GraphPad Prism v. […]

E. coli = experiment: Broth microdilution MIC at incremental pH, E. coli; assay type: cell-based
Procedure: as §1, §2

Compound: CCCCOP(=O)(O)OC[C@H]1O[C@@H](n2ccc(N)nc2=O)C[C@@H]1OP(=O)(O)OCCCC [Nu-8, sodium ((2R,3S,5R)-5-(4-amino-2-oxopyrimidin-1(2H)-yl)-3-((butoxyoxidophosphor-yl)oxy)tetrahydrofuran-2-yl)methyl butyl phosphate]
- MIC (P. aeruginosa; pH 1): 9.38 mg/mL
- MIC (P. aeruginosa; pH 3): 18.75 mg/mL
- MIC (P. aeruginosa; pH 4): 37.5 mg/mL
- MIC (P. aeruginosa; pH 5): 75 mg/mL
- MIC (P. aeruginosa; pH 7): >75 mg/mL
- effect on cell permeability, cell viability and growth [1]: alters E. coli cell permeability and reduces cell viability and growth
- mean bladder CFU burden ([2]; 20 minutes post-treatment): 2.9 log10
- mean bladder CFU burden ([2]; 60 minutes post-treatment): 3.7 log10 CFU
- MIC (E. coli; pH 1): 9.8 mg/mL
- MIC (E. coli; pH 3): 37.5 mg/mL
- MIC (E. coli; pH 4): 75 mg/mL
- MIC (E. coli; pH 5): >75 mg/mL
- MIC (E. coli; pH 7): >75 mg/mL
